Positions of bridges follow the written chain, without caps; N, C: chain ends. Non-standard residues stand in square brackets, D forms with d. Residues, ends and D or L forms follow the SMILES beside them.
Assays:
[1] = test system: HeLa cells stably expressing HaloTag; test: Chloroalkane penetration assay (CAPA); type: in vitro ADME, human; details: chloroalkane-tagged (ct) peptide; HeLa cells; ct-TAMRA chase
Excerpt: We first tested the cell permeability of GD20, as peptide-based chemical probes often suffer from poor cell permeability. […] In order to quantitatively evaluate the cell permeability of GD20, we used a recently developed HaloTag-based assay known as a chloroalkane penetration assay (CAPA) (Figure S6I) (Peraro et al., 2018). HeLa cells stably expressing HaloTag localized to the mitochondrial outer membrane were pulsed with chloroalkane-tagged molecules (ct-molecule), washed, chased with chloroalkane-tagged TAMRA fluorophore (ct-TAMRA), and finally analyzed by flow cytometry. A lower ct-TAMRA fluorescent signal indicates competition from a higher cytosolic concentration of ct-molecule. The carboxyl terminus of GD20 (G15) was conjugated with a chloroalkane tag to make ct-GD20 (FIG. 23A).
The cell lines used for CAPA were HeLa cell lines, generated by Chenoweth and co-workers, that stably express HaloTag exclusively in the cytosol (Peraro et al., 2018). Cells were seeded in a 96-well plate the day before the experiment at a density of 4×10^4 cells per well. The day of the experiment the media was aspirated, and 100 μL of cyclic peptide dilutions in DMEM were added to the cells. Plate was incubated for 19.5 h at 37° C. with 5% CO2. […] The cells were then trypsinized, quenched with DMEM, resuspended in PBS, and analyzed using a benchtop flow cytometer (CytoFLEX, Beckman).

GppNHp-bound Gαs = GppNHp-bound Gαs (Homo sapiens, UniProt P63092); test: Adenylyl cyclase activity assay (Gαs-mediated adenylyl cyclase activation, cAMP production, LANCE Ultra cAMP kit); type: biochemical; design: made in house; host or cells: Escherichia coli BL21(DE3); details: 6.25 μM of GN13; in the presence of Gβ1/γ2
Excerpt: Active state binding cyclic peptide GN13 blocks Gαs-mediated adenylyl cyclase activation. In order to determine whether (Gαs/GppNHp) specific binders inhibit Gαs activity, we assayed the ability of Gαs to activate its downstream effector adenylyl cyclase (AC) (FIG. 17A). We refer to resynthesized active state binding cyclic peptides with a “GN” (Gαs/GppNHp) preceding their ranking number. […] We then evaluated the inhibitory effect of the top hits on Gαs-mediated adenylyl cyclase activation by measuring production of cAMP in a reconstituted Gαs activity assay (FIG. 17A). […] Cyclic peptides dose dependent inhibition (FIG. 17C). […] WT Gαs at a concentration of 8.5 mg/mL (about 190 μM) in 20 mM HEPES 8.0, 150 mM NaCl, 5 mM MgCl2, 1 mM EDTA-Na 8.0 was diluted to 0.5 μM in dilution buffer (1× PBS 7.4, 0.1% BSA, 1 mM EDTA-Na 8.0, 2 mM DTT, 0.1 mM MgCl2) plus 1 mM GppNHp. […] Reaction mixture was further incubated at room temperature for 2 hours and placed on ice for 5 minutes. cAMP production was initiated by addition of […] of ATP stock (1 mM ATP, 1× PBS 7.4, 0.1% BSA). The reaction was carried out at 30° C. for 10 minutes in a PCR machine and stopped by heating at 95° C. for 3 minutes. The cAMP concentrations were measured by the LANCE Ultra cAMP kit. […] The cAMP concentrations were measured by the LANCE Ultra cAMP kit. cAMP concentrations measurement by the LANCE Ultra cAMP kit. […]

Chain of GppNHp-bound Gαs (P63092 1-380 isoform P63092-2): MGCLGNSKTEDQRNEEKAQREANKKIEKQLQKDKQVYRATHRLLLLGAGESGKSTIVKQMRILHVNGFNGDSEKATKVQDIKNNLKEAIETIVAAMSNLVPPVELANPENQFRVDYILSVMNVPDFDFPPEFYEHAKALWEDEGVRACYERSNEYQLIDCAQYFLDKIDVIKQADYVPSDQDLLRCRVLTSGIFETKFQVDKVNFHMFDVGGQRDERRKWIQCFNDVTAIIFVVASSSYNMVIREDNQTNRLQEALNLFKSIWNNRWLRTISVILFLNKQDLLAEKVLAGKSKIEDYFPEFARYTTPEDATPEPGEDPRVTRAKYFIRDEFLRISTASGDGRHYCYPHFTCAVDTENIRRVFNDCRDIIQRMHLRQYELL

| Structure (SMILES) | cell permeability (CAPA) [1] | inhibition of adenylyl cyclase activation by Gαs WT (GppNHp-bound Gαs) |
| --- | --- | --- |
| CC[C@H](C)[C@@H]1NC(=O)[C@H](CC(C)C)NC(=O)[C@@H](Cc2ccc(O)cc2)NC(=O)CSC[C@@H](C(=O)NCC(N)=O)NC(=O)[C@@H]2CCCN2C(=O)[C@H](CC(C)C)NC(=O)[C@H](CC(N)=O)NC(=O)[C@H](CC(C)C)NC(=O)[C@H](C)NC(=O)[C@H](Cc2c[nH]c3ccccc23)NC(=O)[C@H](CCC(N)=O)NC(=O)[C@H](CCCNC(=N)N)NC(=O)[C@H](Cc2ccccc2)NC(=O)[C@H]([C@@H](C)O)NC1=O [GD20-F10L] ({CH2CO}-[dY]LITFRQWALNLPCG-NH2; thioether N-14) | significantly improved cell penetration | – |
| CC[C@H](C)[C@@H]1NC(=O)[C@H](C)NC(=O)[C@H](Cc2ccc(O)cc2)NC(=O)[C@H](C(C)C)NC(=O)[C@H](CO)NC(=O)[C@H](CCC(=O)O)NC(=O)[C@H](Cc2ccccc2)NC(=O)[C@@H](Cc2ccc(O)cc2)NC(=O)CSC[C@@H](C(=O)NCC(N)=O)NC(=O)[C@H](CC(C)C)NC(=O)[C@H]([C@@H](C)O)NC(=O)CNC(=O)[C@H](Cc2c[nH]c3ccccc23)NC1=O [GN13] ({CH2CO}-[dY]FESVYAIWGTLCG-NH2; thioether N-13) | – | inhibits |

— patent US20240336657A1, “G-ALPHA-S PEPTIDE INHIBITORS AND USES THEREOF” (The Regents of the University of California, priority 2021, published 2024)
